Laboratory results taken from paper PMC6668022 (Pharmaceutical research, 2019).
Values joined by “and” are separate entries in the source; they are usually repeats but may differ in a detail not shown here. Equal values may be shown once. “Also recorded” adds a separate entry of the source. Read-outs that look alike come from different tables or passages of the source.

How the values were obtained:
EBOV [1] = test: microbe, parasite or virus in culture; format: cell-based, Ebola virus
in vitro = settings: human
HeLa cells = settings: read-out: HeLa CC50; n=2
EBOV [2] = settings: in vivo, 30 mg/kg/day; cited from earlier work
[3] = tested on: VP35-nucleoprotein interface; settings: cited from earlier work
[4] = Zaire ebolavirus, HeLa, 24 h, read-out: EC50 Activity against EBOV, n=4
[5] = read-out: EC50 Activity against EBOV, n=4

Structure (SMILES) | EC50 (EBOV [1]; [4]) [µM] | EC50 (EBOV [1]; [5]) | CC50 (in vitro) [µM] | also measured
CC(=O)OCc1ccccc1 [Benzyl acetate] | 10 | 10.7 ± 5 µM | > 50 | 
C=CCc1ccc(O)c(OC)c1 [Eugenol] | 1.3 ± 0.5 |  | > 50 | 
CC(C)[C@@H]1CC[C@@H](C)C[C@H]1O [L- menthol] |  |  |  | EC50 Activity against EBOV (EBOV [1]; n=4): no appreciable activity; also recorded: inactive
NC(=O)c1cccnc1 [Nicotinamide, reference compound] |  |  |  | EC50 Activity against EBOV (EBOV [1]; n=4): inactive
O=C(O)c1cccnc1 [Nicotinic acid, reference compound] |  |  |  | EC50 Activity against EBOV (EBOV [1]): inactive
COc1ccc(C=O)cc1 [P-anisaldehyde] | 2.8 | 2.9 ± 0.6 µM | > 50 | 
CC(=O)OCCc1ccccc1 [Phenethyl acetate] |  | 10 µM and 10.4 µM |  | CC50 (HeLa cells): > 50 µM
CCN(CC)CCOc1ccc2c(c1)C(=O)c1cc(OCCN(CC)CC)ccc1-2 [tilorone] |  |  |  | efficacy in a mouse model of EBOV infection (EBOV [2]): 100%
Cc1ccc(C(=O)c2cc(O)c(O)c([N+](=O)[O-])c2)cc1 [tolcapone] |  |  |  | IC50 [3]: 2000 nM
